BindingDB's records for doi:10.1016/j.bmcl.2006.12.033 (F. Hoffmann-La Roche, 2007)

What was measured:
[1] = target: T1, Metabotropic glutamate receptor 5 (Homo sapiens, UniProt P41594); experiment: Antagonist activity at mGluR5 by FLIPR
[2] = target: T1, Metabotropic glutamate receptor 5; experiment: Displacement of [3H]MPEP from mGlu5 receptor

T1 sequence (P41594 whole entry): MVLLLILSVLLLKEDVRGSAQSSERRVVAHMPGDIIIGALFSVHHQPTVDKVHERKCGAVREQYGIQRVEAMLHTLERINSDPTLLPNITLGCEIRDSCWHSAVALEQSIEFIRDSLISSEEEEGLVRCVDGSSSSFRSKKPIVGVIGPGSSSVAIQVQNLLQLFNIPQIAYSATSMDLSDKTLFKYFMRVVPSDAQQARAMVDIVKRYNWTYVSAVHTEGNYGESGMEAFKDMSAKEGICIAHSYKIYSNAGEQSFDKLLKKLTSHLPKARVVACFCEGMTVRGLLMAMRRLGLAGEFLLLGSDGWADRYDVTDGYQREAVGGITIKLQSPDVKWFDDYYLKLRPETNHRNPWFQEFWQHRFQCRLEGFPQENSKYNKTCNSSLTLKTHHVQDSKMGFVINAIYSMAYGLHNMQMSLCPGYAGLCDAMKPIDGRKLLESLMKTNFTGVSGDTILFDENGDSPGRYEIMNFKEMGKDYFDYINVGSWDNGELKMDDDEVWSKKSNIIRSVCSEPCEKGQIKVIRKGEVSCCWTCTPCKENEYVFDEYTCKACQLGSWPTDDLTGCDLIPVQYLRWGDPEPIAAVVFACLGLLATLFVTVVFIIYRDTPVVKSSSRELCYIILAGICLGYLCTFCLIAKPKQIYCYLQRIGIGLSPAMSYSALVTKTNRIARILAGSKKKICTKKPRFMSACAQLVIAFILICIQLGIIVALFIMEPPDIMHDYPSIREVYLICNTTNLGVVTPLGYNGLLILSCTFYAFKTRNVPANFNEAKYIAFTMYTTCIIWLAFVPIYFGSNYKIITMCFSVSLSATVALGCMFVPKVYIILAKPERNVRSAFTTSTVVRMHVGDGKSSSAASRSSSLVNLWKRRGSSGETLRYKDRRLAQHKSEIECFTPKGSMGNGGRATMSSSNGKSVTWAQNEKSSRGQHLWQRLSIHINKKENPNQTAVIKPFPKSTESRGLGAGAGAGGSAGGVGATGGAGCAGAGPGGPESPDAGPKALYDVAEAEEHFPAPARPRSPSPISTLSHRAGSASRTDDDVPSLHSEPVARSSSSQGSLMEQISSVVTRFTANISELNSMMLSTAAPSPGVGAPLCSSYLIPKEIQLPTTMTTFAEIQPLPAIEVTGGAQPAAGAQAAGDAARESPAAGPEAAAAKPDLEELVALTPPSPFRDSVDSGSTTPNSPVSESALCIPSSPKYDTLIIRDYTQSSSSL

Compound | IC50 [1] [µM] | IC50 [2] [µM]
Cn1cc(O)nc1NC(=O)Nc1cccnc1 [(E)-1-(1-methyl-4-oxoimidazolidin-2-ylidene)-3-(pyridin-3-yl)urea] | > 5 | > 5
Cn1cc(O)nc1NC(=O)Nc1ccc(Cl)cc1 [(E)-1-(4-chlorophenyl)-3-(1-methyl-4-oxoimidazolidin-2-ylidene)urea] | > 5 | > 5
